Test results as given in the NIST ThermoML archive (doi:10.1021/je800290k).
Values joined by “and” are separate entries in the source; they are usually repeats but may differ in a detail not shown here. Equal entries are not always repeated.

Details: Liquid, Ebulliometric method (Recirculating still)

NCCO [2-aminoethan-1-ol]
Details	vapor or sublimation pressure [kPa]
357.46 K	2.98
362.99 K	3.98
369.33 K	5.48
374.29 K	6.98
378.41 K	8.47
384.07 K	10.97
391.14 K	14.96
398.01 K	19.97
403.43 K	24.97
408.19 K	29.97
415.78 K	39.98
415.81 K	39.95
424.61 K	54.95
429.44 K	64.95
431.61 K	69.95
435.61 K	79.95

CN(CCO)CCO [N-methyldiethanolamine]
Details	vapor or sublimation pressure [kPa]
409.69 K	2.48
413.43 K	2.98
416.72 K	3.48
421.96 K	4.48
426.65 K	5.48
430.48 K	6.48
435.5 K	7.98

CNCCCN [N-methyl-1,3-diaminopropane]
Details	vapor or sublimation pressure [kPa]
326.81 K	3.46
331.62 K	4.47
337.36 K	5.97
343.91 K	7.97
353.78 K	12.48
365.76 K	20.47
372.77 K	27.96
383.53 K	39.97
397.99 K	64.98
404.7 K	79.98
412.5 K	101.27

O [water]
Details	vapor or sublimation pressure
311.63 K	6.78 kPa
313.24 K	7.38 kPa
314.99 K	8.11 kPa
323.11 K	12.28 kPa
323.14 K	12.28 kPa
323.15 K	12.27 kPa
325.47 K	13.78 kPa
325.61 K	13.8 kPa
332.76 K	19.84 kPa
332.85 K	19.84 kPa
333.13 K	19.58 kPa
333.17 K	19.88 kPa and 19.88 kPa
333.18 K	19.88 kPa and 19.88 kPa
333.19 K	19.87 kPa
340.41 K	27.6 kPa
340.44 K	27.58 kPa
340.47 K	27.6 kPa
348.8 K	39.83 kPa
348.84 K	39.83 kPa
349.91 K	41.4 kPa
349.94 K	41.39 kPa
349.97 K	41.4 kPa
353.14 K	47.18 kPa and 47.19 kPa
353.15 K	47.18 kPa
357.02 K	55.17 kPa
357.07 K	55.18 kPa
357.08 K	55.17 kPa
358.87 K	59.88 kPa
358.92 K	59.88 kPa
362.55 K	68.92 kPa
362.59 K	68.92 kPa
362.8 K	69 kPa
362.83 K	69 kPa and 68.98 kPa
362.89 K	69.83 kPa
362.93 K	69.83 kPa
367.48 K	82.79 kPa
367.49 K	82.79 kPa
367.67 K	82.79 kPa
367.69 K	82.79 kPa and 82.78 kPa
371.67 K	96.51 kPa
371.7 K	96.51 kPa
371.9 K	96.47 kPa
371.91 K	96.58 kPa
372.69 K	99.28 kPa
372.86 K	100.59 kPa
372.89 K	100.59 kPa
373.16 K	100.98 kPa and 100.98 kPa
